Source: US6312703A, “Compressed lecithin preparations” (Lecigel, LLC, priority 1999, dated 2001)

Legend:
serum cholesterol = experiment: Cholesterol lowering in hamsters fed LCP, Lescol or the combination, bled after two weeks; format: in vivo, Golden Syrian hamsters; conditions: diet with 2% LCP and/or 0.01% Lescol
Method: A study was performed to compare the effects of cholesterol reduction using the 2% LCP alone, 0.01% Lescol (a HMG CoA reductase inhibitor) alone, and a combination of 0.01% Lescol mixed with the phospholipids and extruded to create the LCP. The dosage was administered to Golden Syrian hamsters which were bled after two weeks to determine the cholesterol lowering effects.

LDL cholesterol = conditions: 60 hypercholesterolemic patients; Gurevich et al.; cited from earlier work

Row | SMILES | HDL (serum cholesterol) | Non HDL (serum cholesterol) | Total Cholesterol (serum cholesterol) | Lovastatin dose required to reduce LDL cholesterol level to a value of 130 (LDL cholesterol) [mg/day]
1 | CC(C)n1c(/C=C/[C@@H](O)C[C@@H](O)CC(=O)O)c(-c2ccc(F)cc2)c2ccccc21 (racemic) [Lescol] | 1.77 ± 0.16 | 1.61 ± 0.63 | 3.37 ± 0.67 | 
2 | CC[C@H](C)C(=O)O[C@H]1C[C@@H](C)C=C2C=C[C@H](C)[C@H](CC[C@@H]3C[C@@H](O)CC(=O)O3)[C@H]21 [Lovastatin] |  |  |  | 40
